Data on one compound can be found in patent US20020039780A1, “Salicyclic acid inducible genes and promoters” (priority 1998, published 2002).

Assay type in all cases: cell-based
For test [1], the system named is class II genes. As to the kind of experiment: Northern analysis of poly(A) mRNA from treated tobacco cells. To be noted: SA at 2, 4, 8 h; 71 μM CHX 5 hrs; CHX + 200 μM SA. The procedure:
(§1) FIG. 1. Four classes of SA-induced early genes. Northern analysis of genes identified by differential display. Gel-purified DNA fragments produced by ddPCR were either used directly for random-primed labeling and probing of Northern filters (e.g. C7-1, C6-1, and G9-2) or first subcloned and released by restriction digest. Each lane contains 1 μg of poly(A) mRNA from cultured tobacco cells treated with (1) H2O, 4 hr; (2) 200 μM SA, 4 hr; (3) 71 μM CHX, 5 hr; (4) 71 μM CHX, 5 hr plus 200 μM SA after 1 hr (4 hr total); (5) 20 μM SA, 2 hr; (7) 200 μM SA, 8 hr. One blot was sequentially hybridized with the G1-1 fragment and the β-ATPase gene as a loading control probe. response classes (I-IV) are indicated on the left of the autoradiograms.
(§2) Differential display technology (Liang, P. and Pardee, A. B., Science 257: 967-971, 1992) was used to identify genes activated in the presence of SA, CHX and both. Therefore the absence or presence of SA, induction at 3 timepoints of SA-treatment, 2 different concentrations of SA and the effect of addition of CHX were measured. Seven treatments in total were performed. Treatment of tobacco BY-2 suspension cells and leaves and differential display PCR reactions were performed as described (Horvath and Chua (1996), Plant Mol. Biol. 31, 1061-1072).
(§3) Fiftytwo were recovered for testing on poly(A)+Northern blots loaded with mRNA derived from cells from each of the treatments.

Test [2] deals with class IV genes (G3-2 and C14-1b). Described as above. To be noted: SA at 2, 4, 8 h; 71 μM CHX 5 hrs. The procedure:
as §1, §2, §3

Test [3] deals with Class I genes. Described as above. The note with it: SA at 2, 4 or 8 h; 71 μM CHX 5 hrs; CHX + 200 μM SA. The procedure:
as §1, §2, §3

Test [4] deals with IEGT-Luc2 lines. As to the kind of experiment: Promoter-luciferase reporter activity in leaves of transgenic tobacco. The note with it: leaf halves infiltrated with 1 mM SA or water for 4-12 hours; all ten lines. The procedure: (§4) FIG. 8. A. Schematic representation of the set-up of the experiment investigating SA-inducible gene expression in plants carrying a promoter-luciferase reporter construct. Parts of the leaves of transgenic plants are harvested, split and one half treated by infiltration by SA. The other half is treated with water. Then both halves are sprayed with luciferin solution and tested for luminescence. B. Results of the experiment using leaves of tobacco transgenic for the IEGT/G1-1 promoter-luciferase reporter construct. On the picture, the lefthand side of the leave was infiltrated with SA, the right hand side infiltrated with water. Increased luminescence is indicated by the lighter colors.
(§5) Amplified fragments were digested with BamHI and HindIII and subcloned into BamHI and HindIII-digested vector VIP11•-FFLuc (Anderson et al., 1994, Plant J. 4, 457-470) containing the firefly luciferase gene. This vector positions the promoter sequences directly upstream the promoterless FFLuc gene. […]
(§6) Leaves of primary transformants or S1 progeny were tested for reporter gene activity by excising halves of the leaves, splitting and infiltration with either water or 1 mM SA for 4-12 hours. Leaves were then sprayed with the reporter substrate luciferin (1 mM luciferin with 0.1% Triton X-100 in water) and the luminescence counted by video-imaging and quantitation equipment (schematically shown in FIG. 8A).
Background: A reporter such as luciferase makes a cellular process visible.

Test [5] deals with IEGT-Luc1 lines. Described as above. The note with it: leaf halves infiltrated with 1 mM SA for 4-12 hours; six out of ten lines. The procedure:
as §4, §5, §6

Test [6] relates to C6-2. The experiment in a line: Northern analysis of mRNA accumulation in cultured tobacco cells. As for the experimental part:
(§7) FIG. 2. Time course of SA-induced gene expression. Northern analysis of representative differential display genes following treatment of cultured tobacco cells with SA for the indicated time (in hours, except lanes 2-4, which refer to 10, 20, and 30 min.). Twenty micrograms of total RNA was loaded per lane. Blots were hybridized with ddPCR fragments indicated at right or with the β-ATPase gene as a loading control probe. Autoradiogram exposure times were optimized for each gene. The signal for C18-1 was enhanced by using the full length cDNA as probe. Labels on left indicate response class.
(§8) FIG. 4. Specificity of induction among SA analogs and other signalling compounds. Northern analysis of representative differential display genes following treatment of tobacco cells with 100 μM or 1 mM (left and right side of triangles, respectively) of the following chemicals for 2-2.5 hr: salicylic acid (SA, lanes 4 and 5), acetylSA (ASA, lanes 6 and 7), benzoic acid (BA, lanes 8 and 9), 4-hydroxybenzoic (4HBA, lanes 10 and 11), thiamine (thia, lanes 12 and 13), methyljasmonate (MJ, lanes 14 and 15), abscisic acid (ABA, lanes 16 and 17), or 2,4-dichlorophenoxyacetic acid (2,4-D, lanes 18 and 19). Control treatments are H2O (H, lane 1), 1% ethanol (E, solvent concentration in MJ treatments, lane 2), or 1% DMSO (D, solvent concentration in 2,4D treatments, lane 3). Blots were hybridized with ddPCR fragments indicated at right or with the β-ATPase geneas a loading control probe. Autoradiogram exposure times were optimized for each gene. The signal for C18-1 was enhanced by using the full length cDNA as probe. Labels on left indicate response class.
as §2
(§9) The specificity for induction by SA was tested by treating tobacco cells with a range of SA analogs and plant signalling compounds at 0.1 and 1 mM for approximately 2.5 h. […] Among the SA-analogs, acetyl-SA (ASA, aspirin), benzoic acid (BA) and 4-hydroxybenzoic acid (4HBA), responses generally reflected the ability of the analog to substitute for SA in other cellular responses (Yalpani, N. et al., Plant Cell 3: 809-818, 1991, Yang, Y. and Klessig, D. F., Proc. Natl. Acad. Sci. 93, 14972-14977, 1996). […] Several genes, including those for proteinase inhibitors and lipoxygenase (Hildmann, T. et al., Plant Cell 4: 1157-1170, 1992; Melan, M. A. et al., Plant Physiol. 101: 441-450, 1993; Xu, D. et al., Plant Mol. Biol. 22: 573-588, 1993) are known to be under dual regulation by MJ and ABA. A similar mode of regulation may be in effect with C14-1b. the auxin 2,4-D induced several genes including C18-1/EREBP1 and C6-2.

Test [7] deals with C14-1b. The description is as above. The procedure: as §7, §8, §2, §9
Where [8] appears, read: 0.1 and 1 mM, approximately 2.5 h.

Some results are limits rather than exact numbers.

Take `O=C(O)c1ccccc1O` [SA, salicylic acid]: the “mRNA induction of class II genes” value in test [1] is “rapid and transient”. In addition, the “mRNA induction of class IV genes” value in test [2] was “rapid and sustained induction”. The “mRNA induction of Class I genes” value in test [3] is on record as “little if any detectable mRNA accumulation”. For the same compound, the luciferase activity entry in test [4] is “only baseline activity”. The “SA-induced luciferase expression over controls” value in test [5] is recorded as 2.3-6 fold. For the same compound, in test [6] (setting [8]), the “C6-2 induction at 0.1 mM versus 1 mM” value was “greater induction at 1mM”. In test [6] (SA time course), the “time at which C6-2 induction is apparent” value was at most 10 min, the “time of peak C6-2 mRNA” value is “approximately 1.5 h” and the “time of reduction of C6-2 mRNA to background levels” value is listed as at most 4 h. For the same compound, the “induction of C14-1b” value in test [7] (setting [8]) was “did not reveal response”. In test [7] (SA time course), the “time at which C14-1b induction is apparent” value was 2 to 2.5 h and the “time of peak C14-1b expression” value stood at 5 h.
